The record followed here is patent publication US20250122171A1, “Substituted Amine Compounds, Compositions and Methods of Use” (Deep Apple Therapeutics, Inc., priority 2023, published 2025).

What all share (assay type): cell-based
The target of one assay is T1, human MRGPRX2 (Homo sapiens, UniProt Q96LB1).
T1 construct: expressed in transfected cells; host or cells: FlpIn TRex HEK293 (TRex-MRGPRX2-HEK), doxycycline-induced
T1 sequence (Q96LB1 1-330): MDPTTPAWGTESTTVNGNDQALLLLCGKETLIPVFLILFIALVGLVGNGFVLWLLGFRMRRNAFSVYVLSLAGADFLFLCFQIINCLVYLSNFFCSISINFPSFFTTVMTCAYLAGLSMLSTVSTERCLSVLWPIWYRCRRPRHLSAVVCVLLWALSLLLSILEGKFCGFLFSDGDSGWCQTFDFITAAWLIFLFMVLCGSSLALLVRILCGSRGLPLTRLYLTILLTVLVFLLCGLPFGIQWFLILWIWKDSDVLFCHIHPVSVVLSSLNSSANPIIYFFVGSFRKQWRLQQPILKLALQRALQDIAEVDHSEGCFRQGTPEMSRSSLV
As to the kind of experiment: MRGPRX2 Activity Assay (IP-1 HTRF, antagonist mode). The settings on record: FlpIn TRex-MRGPRX2-HEK293 cells; versus 1 μM Cortistatin-14 agonist; 30 minutes preincubation. The procedure, abridged:
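Doxycycline-induced (100 ng/mL, 18-24 h) TRex HEK293 cells stably expressing human MRGPRX2, in HBSS/20 mM HEPES/0.1% BSA/10 mM LiCl. Compounds (top final 30 uM, 1% DMSO) preincubated 30 min, then agonist stimulation 1 h at 37° C without wash. IP-1 accumulation read by HTRF; IC50 from 4-parameter fit.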
(In general: In TR-FRET formats the signal depends on donor and acceptor labels being close together.)

The test system of assay [1] is LAD-2 cells. Kind of assay: LAD2 Degranulation Assay (Protocol 1), β-hexosaminidase release. The settings on record: Homo sapiens, 1 μM Cortistatin-14, 30 minute preincubation, top concentration 3 μM. Here is the method: (§1) LAD-2 cells were maintained at 37° C. with 5% CO2 and grown in complete StemPro-34 media supplemented with 1% L-Glutamate, 1% penicillin/streptomycin, and 250 ng/mL human SCF.
On the day of experiment, cells were collected by centrifugation and seeded in 384-well assay plates, at 4,000 cells per well in 10 μl freshly made assay buffer (10 mM HEPES, 130 mM NaCl, 5 mM KCl, 1.8 mM CaCl2), 1.0 mM MgCl2, 5.6 mM glucose, 0.1% BSA, pH=7.40). For dose-response assays, compounds solubilized in 100% DMSO at 30 mM were serially diluted (1:3) first in 100% DMSO, and 2 intermediate dilutions with assay buffer were used to establish a final top concentration of 3 μM (in assay plate). Final DMSO concentration was kept constant at 0.1% across plates for all assays. Cortistatin-14 at 30 mM stock concentration was solubilized in HBSS+0.1% BSA, stored at −20° C. in 5 μl aliquots and discarded after one freeze-thaw cycle. Final concentration of agonist used in both dose-response and single point assays was 1 μM, prepared in assay buffer.
(§2) Antagonist equilibrium was established with 30 minute preincubation, followed by no wash, direct addition, and stimulation of agonist for 30 minutes at 37° C. For detection of β-hexosaminidase activity, assay plates were centrifuged and 5 μl of cell-free supernatant from each assay well was transferred to a black-walled black-bottomed 384-well plate. Substrate solution (1 mM 4-Methylumbelliferyl N-acetyl-β-D-glucosaminide in citrate buffer, pH=4.5, 15 μl) was added to each well and plates were incubated for 1 hour at 37° C. The plate was read on an EnVision XCite plate reader for umbelliferone fluorescence intensity (λex=355 nm, λem=460 nm). Background-subtracted data was analyzed using either GraphPad Prism or a custom Python script to calculate IC50 using either Log[Antagonist] vs. response (4 parameter) nonlinear regression (dose-response assays).

The test system of assay [2] is LAD-2 cells. As to the kind of experiment: LAD2 Degranulation Assay (Protocol 2), β-hexosaminidase release. The conditions noted are these: Homo sapiens, 0.5 μM Cortistatin-14, 2 h preincubation, cells without SCF 18-24 hours, top concentration 3 μM. Here is the method:
as §1
18-24 hours prior to experiment, LAD-2 cells were collected and transferred to growth media without SCF. On the day of experiment, cells were collected by centrifugation and seeded in 384-well assay plates, at 4,000 cells per well in 17 μl freshly made assay buffer (10 mM HEPES, 137 mM NaCl, 2.7 mM KCl, 1.8 mM CaCl2), 1.0 mM MgCl2, 5.6 mM glucose, 0.4 mM NaH2PO4, 0.04% BSA, pH=7.40). For dose-response assays, compounds solubilized in 100% DMSO at 30 mM were serially diluted (1:3) first in 100% DMSO, and 2 intermediate dilutions with assay buffer were used to establish a final top concentration of 3 μM (in assay plate). For single point assays, dilution of DMSO stocks to 250 nM (in assay plate) was performed in the same manner as described for dose-response assays. Final DMSO concentration was kept constant at 0.1% across plates for all assays. Cortistatin-14 at 30 mM stock concentration was solubilized in HBSS+0.1% BSA, stored at −20° C. in 5 μl aliquots and discarded after one freeze-thaw cycle. Final concentration of agonist used in both dose-response and single point assays was 0.5 μM, prepared in assay buffer.
as §2, with “with 2 h” for “with 30 minute”, “[…])” for “15 μl)”, “(dose-response assays) or % control β-hexosaminidase activity (single point” for “(dose-response”

`C[C@@H](C(=O)Nc1noc(Cc2cc(F)cc(F)c2)n1)N1CCC(F)(F)[C@@H](c2cc[n+]([O-])cc2)C1` (single isomer, unassigned) [Compound 56]: the figures for the concentration for half-maximal inhibition (IC50) on human MRGPRX2 and in the assay on LAD-2 cells [1] were 0.076 µM and 0.976 µM, respectively.

For the molecule `C[C@H](C(=O)Nc1cn(Cc2cc(F)cc(F)c2)cn1)N1CCC(F)(F)[C@@H](c2ccc(=O)n(C)c2)C1` (single isomer, unassigned) [Compound 68], the IC50 (usually the concentration that gives 50% inhibition) at human MRGPRX2 was found to be 0.023 µM; in the assay with LAD-2 cells [1], 0.03 µM.

For the molecule `C[C@H](C(=O)Nc1cn(Cc2cc(F)cc(F)c2)cn1)N1CCC(F)(F)[C@@H](c2c[nH]c(=O)c(CO)c2)C1` (single isomer, unassigned) [Compound 72], the results for the IC50 on human MRGPRX2 and in the assay with LAD-2 cells [1] were 0.012 µM and 0.02 µM, respectively.

Regarding `C[C@H](C(=O)Nc1cn(Cc2cc(F)cc(F)c2)c(C(F)(F)F)n1)N1CCC(F)(F)[C@@H](c2cc[n+]([O-])cc2)C1` (single isomer, unassigned) [Compound 26], the values for the IC50 at human MRGPRX2 and in the assay with LAD-2 cells [1] were 0.013 µM and 0.04 µM, respectively.

`O=C(Nc1cn(Cc2cc(F)cc(F)c2)cn1)[C@@H]1C(F)(F)C12CCC2` [Compound 29, (R)—N-(1-(3,5-difluorobenzyl)-1H-imidazol-4-yl)-2,2-difluorospiro[2.3]hexane-1-carboxamide]: the IC50 was found to be 0.22 µM at human MRGPRX2 and 0.212 µM in the assay with LAD-2 cells [1].

In the case of `C[C@@H](C(=O)Nc1cn(Cc2cc(F)ccc2Cl)cn1)N1CCC(F)(F)[C@@H](c2cc[n+]([O-])cc2)C1` [Compound 35, 4-((S)-1-((S)-1-((1-(2-chloro-5-fluorobenzyl)-1H-imidazol-4-yl)amino)-1-oxopropan-2-yl)-4,4-difluoropiperidin-3-yl)pyridine 1-oxide], the figures for the IC50 on human MRGPRX2 and with LAD-2 cells [1] were 0.0079 µM and 0.057 µM, respectively.

In the case of `C[C@@H](C(=O)Nc1cn(Cc2cc(F)cc(C#N)c2)cn1)N1CCC(F)(F)[C@@H](c2cc[n+]([O-])cc2)C1` [Compound 53, 4-((S)-1-((S)-1-((1-(3-cyano-5-fluorobenzyl)-1H-imidazol-4-yl)amino)-1-oxopropan-2-yl)-4,4-difluoropiperidin-3-yl)pyridine 1-oxide], the IC50 was determined as 0.783 µM on human MRGPRX2 and 1.02 µM with LAD-2 cells [1].

For `C[C@H](C(=O)Nc1cn(Cc2cc(F)cc(F)c2)c(C(F)F)n1)N1CCC(F)(F)[C@@H](c2cc[n+]([O-])cc2)C1` (single isomer, unassigned) [Compound 83], the results for the IC50 on human MRGPRX2, in the assay on LAD-2 cells [1] and in the assay on LAD-2 cells [2] were 0.008 µM, 0.013 µM and 0.012 µM, respectively.

In the case of `C[C@H](C(=O)Nc1coc(Cc2cc(F)cc(F)c2)n1)N1CCC(F)(F)[C@@H](c2cc[n+]([O-])cc2)C1` (single isomer, unassigned) [Compound 28], the IC50 was found to be 0.0021 µM on human MRGPRX2 and 0.019 µM with LAD-2 cells [1].

For the molecule `C[C@H](C(=O)Nc1nc2ccccc2s1)N1CCC(F)(F)[C@@H](c2cc[n+]([O-])cc2)C1` (single isomer, unassigned) [Compound 85], the IC50 worked out at 0.028 µM on human MRGPRX2 and 0.1 µM with LAD-2 cells [1].

Consider `C[C@H](C(=O)Nc1cn(Cc2cc(F)cc(F)c2)cn1)N1CCC(F)(F)[C@@H](c2ccc(=O)[nH]c2)C1` (single isomer, unassigned) [Compound 55], for which the IC50 was determined as 0.004 µM on human MRGPRX2 and 0.022 µM in the assay on LAD-2 cells [1].

For the molecule `Cc1nc(NC(=O)[C@H](C)N2CCC(F)(F)CC2)cn1Cc1cc(F)cc(F)c1` (single isomer, unassigned) [Compound 21], the IC50 at human MRGPRX2 turned out to be 0.0033 µM; in the assay on LAD-2 cells [1], 0.0007 µM.

For `C[C@@H](C(=O)Nc1cn(Cc2cc(F)cc(F)c2F)cn1)N1CCC(F)(F)[C@@H](c2cc[n+]([O-])cc2)C1` [Compound 39, 4-((S)-4,4-difluoro-1-((S)-1-oxo-1-((1-(2,3,5-trifluorobenzyl)-1H-imidazol-4-yl)amino)propan-2-yl)piperidin-3-yl)pyridine 1-oxide], the IC50 at human MRGPRX2 was determined as 0.0041 µM; in the assay with LAD-2 cells [1], 0.0033 µM.

With `C[C@@H](C(=O)Nc1cn(Cc2ccc(F)cc2F)c(C(F)(F)F)n1)N1CCC(F)(F)[C@@H](c2cc[n+]([O-])cc2)C1` (single isomer, unassigned) [Compound 7], the values for the IC50 at human MRGPRX2 and with LAD-2 cells [1] were 0.045 µM and greater than 3 µM, respectively.

`C[C@H](C(=O)Nc1cn(Cc2cc(F)cc(F)c2)c(C(F)(F)F)n1)N1CCC(F)(F)[C@H](c2ccc(=O)[nH]c2)C1` (single isomer, unassigned) [Compound 77]: the IC50 at human MRGPRX2 was 0.018 µM; in the assay on LAD-2 cells [1], 0.051 µM.
